Source: PMC8502122, “A comprehensive method for determining cellular uptake of purine nucleoside phosphorylase and adenylosuccinate synthetase inhibitors by H. pylori” (Applied Microbiology and Biotechnology, 2021)
Where two headings read alike, the source gives them in different places.

Columns and labels:
[1] = pKa values and ionic form at pH 7; type: physicochemical
Description: Table 3 Partition coefficients of the neutral and ionized forms, and pKa values of the tested compounds, and of metronidazole used as a control in the cellular uptake studies. Partition coefficients of the ionic forms observed at pH 7 are marked bold | column: Ionic form at pH 7

[2] = system: H. pylori 26695 strain cells; assay: Cellular uptake (accumulation test), UV absorption detection; conditions: 8 h
Experimental: Cellular uptake of PNP inhibitors, formycin A (FA) and formycin B (FB), and the control compound, metronidazole (MTZ), was determined using the approach described by Zhou et al. ([2015]) for E. coli and Pseudomonas aeruginosa, adapted to conditions suitable for H. pylori cell growth. This method measures the change of extracellular drug concentration using LC–MS detection.
Overnight cultures of H. pylori wild-type 26695 strain were grown by shaking (120 rpm) at 37 °C under microaerophilic conditions (5% O2, 10% CO2, 85% N2) in BHI medium (37 g/L) supplemented with 10% Fetal Bovine Serum and 1% Helicobacter pylori Selective Supplement. Cells were collected by centrifugation (5 min at 8000 × g at room temperature). The supernatant was decanted and the cell pellets were suspended in F12 medium (with L-glutamine and sodium bicarbonate) and centrifuged again. The supernatant was decanted again and cell pellets were resuspended in such a volume of F12 medium to obtain an OD600 of 4.0. F12 medium was selected for experiments because it is a minimal medium of defined composition and is suitable for measurements on MS.
(§3) The accumulation test was carried out in 24-deep-well 2 mL flat-bottomed plates, all in a final volume of 1 mL. Three types of samples were used, generated by mixing the following components in a 1:1 ratio: (1) concentrated and resuspended cells in F12 medium, (2) a solution of the appropriate concentration of a test compound in F12 medium, (3) F12 medium.
The final concentrations of the tested compounds were 350 µM and 35 µM for formycin A and formycin B, and 35 μM for hadacidin. One set of three replicate samples was incubated at 37 °C, and the other set was incubated at 4 °C. Samples were taken at the start of the accumulation test, to check the concentration of the inhibitor at the start (named “Inhibitor_start,” “H. pylori + inhibitor_start”), then after 4 and 8 h of incubation at both temperatures. The obtained samples were centrifuged at 8000 × g for 5 min at 4 °C. The supernatant was collected for the LC–MS analysis (used for MTZ, FA, and FB uptake), UV absorption measurements (used for FA and FB uptake), and AdSS and PNP inhibition analysis (used for Hada and FB uptake).
For cellular uptake of formycin A and formycin B, UV absorption was additionally used as a detection method. […] Nevertheless, there is some overlap between these spectra, and because of that, selective observation of formycins absorption is not possible. Moreover, during the cellular uptake experiment, H. pylori cells may take some UV absorbing nutrients from the medium, as well as release some metabolic products that also absorb in the UV region. Therefore, in the cellular uptake experiment, correction for absorption caused by these processes was introduced by including samples containing just H. pylori cells in F12 medium, incubated for 4 and 8 h at both temperatures, and subtracting absorption spectra of such supernatants.
Samples in this case were the same as those evaluated by the LC–MS detection and by analysis of the inhibition of the PNP activity. The UV spectra of the supernatants, from experiments with 350 μM and at 35 μM inhibitor concentration, diluted with water 10 times and 2 times, respectively (with the absorbance of F12 medium, 10 times or 2 times diluted with water, as a reference), were measured. The absorbance at the most suitable wavelengths was used to calculate the formycin concentration. […]

[3] = system: H. pylori 26695 strain cells; assay: Cellular uptake (accumulation test), LC–MS detection; type: cell-based
Experimental: Formycin A, formycin B, and metronidazole were quantified through the ultra-performance liquid chromatography–tandem mass spectrometry. Samples were analyzed on Waters Xevo TQ-S with a standard ESI ion source coupled to Waters Acquity I-class UPLC.
Calibration samples were prepared by spiking blank growth medium F12 by the tested inhibitor, formycin A, formycin B, or metronidazole solutions. Internal standards (IS) were used to improve the accuracy of the method. To each pipetted sample from a particular experiment, the same amount of IS was added. As a detector response, we considered the ratio of the analyte peak area (variable) to the internal standard peak area (constant). This allows compensation for signal changes due to a possible instability of the ion source. If the ionization efficiency changes, both compounds are affected, but the surface peak ratio is maintained. […] Samples and calibrators were precipitated using IS solution and injected on the instrument.
Calibration curves were acquired by plotting the concentration of the standards against the ratio of the analyte peak area to the IS peak area. The calibration curve for FA in low concentration (35 μM) consisted of 7 samples in the range from 0.23 to 37.5 μM (R^2 = 0.997); for FA in high concentration (350 μM), the curve consisted of 6 samples in the range from 3.7 to 374.7 μM (R^2 = 0.995); for FB in low concentration (35 μM), the curve consisted of 7 samples in the range from 0.291 to 46.5 μM (R^2 = 0.999); for FB in high concentration (350 μM), the curve consisted of 7 samples in the range from 2.91 to 465.0 μM (R^2 = 0.999); and for MTZ (0.5 μM), the calibration curve was 8 samples in the range from 0.584 to 584.2 nM (R^2 = 0.995).
Chromatography was run on Waters Acquity BEH C18, 1.7 μm, 2.1 mm × 50 mm analytical column thermostated at 70 °C. The separations were done using 2.5 min gradient method. Phase A was 0.1% formic acid in MilliQ water; phase B was 0.1% formic acid in acetonitrile. For formycins the gradient started at 5% B and increased linearly to 50% B in 1.6 min; at 1.8 min it returned to the starting condition for column equilibration. For metronidazole the gradient started at 5% B and increased linearly to 50% B in 1.3 min; at 2.0 min it returned to the starting condition for column equilibration. The flow rate was 600 μL/min in both methods. The retention time of FA was 0.42 min, FB was 0.45 min (see Fig. 4a, b), and MTZ 0.88 min.

[4] = system: H. pylori 26695 strain cells; assay: Cellular uptake (accumulation test), detection by inhibition of the target enzyme (AdSS or PNP); type: cell-based; conditions: 8 h
Experimental: Overnight cultures of H. pylori wild-type 26695 strain were grown by shaking (120 rpm) at 37 °C under microaerophilic conditions (5% O2, 10% CO2, 85% N2) in BHI medium (37 g/L) supplemented with 10% Fetal Bovine Serum and 1% Helicobacter pylori Selective Supplement. Cells were collected by centrifugation (5 min at 8000 × g at room temperature). The supernatant was decanted and the cell pellets were suspended in F12 medium (with L-glutamine and sodium bicarbonate) and centrifuged again. The supernatant was decanted again and cell pellets were resuspended in such a volume of F12 medium to obtain an OD600 of 4.0.
as §3
The final concentrations of the tested compounds were 350 µM and 35 µM for formycin A and formycin B, and 35 μM for hadacidin. One set of three replicate samples was incubated at 37 °C, and the other set was incubated at 4 °C. […]
where Km and Vmax are the Michaelis constant and maximal velocity, respectively, and Ki is the inhibition constant of the tested inhibitor, in our case hadacidin. […] These values, together with velocity measured for any tested supernatant, Cinhibitor_start , and velocity measured when only F12 medium is present, v, are sufficient to determine inhibitor concentration, Ctested , present in a tested supernatant, using Eq. (4), which is obtained by the rearrangement of Eq. (2) and Eq. (3):4 Ctested=Cinhibitor_start1/vtested-1/v/1/vinhibitor_start-1/v
The formycin B uptake was studied in the same way, but instead of AdSS, PNP was used, since it is the target enzyme for this inhibitor. […] Specific activity is expressed as units per mg of protein (U/mg).

H. pylori SS1 strain = assay: MIC by broth microdilution and FICI of 1:1 combinations, strain SS1; type: cell-based; conditions: Helicobacter pylori, SS1STRAIN, 72 h, combinations 1:1 w/w given as inhibitor a/inhibitor b
Experimental: (§1) Minimal inhibitory concentration of inhibitors was determined by an in vitro broth microdilution assay (Knezevic et al. [2018]). Briefly, double-strength Brain heart infusion broth (BHI) was supplemented with yeast extract (2.5%), horse serum (5%), and IsoVitaleX (1%). In each well, twofold serial dilutions of inhibitors (from 1000 µg/mL to 7.8 μg/mL in a final volume) and an equal volume of inoculated double-strength BHI were added (approx. 1 × 10^6 CFU/mL in final volume). Amoxicillin was used as a positive control, and distilled water as a negative control. The microtiter plates were incubated at 37 °C under microaerobic conditions in moist atmosphere for 3 days. […] During the incubation, in wells with viable H. pylori urease produced by the bacteria converted urea into ammonia and carbon dioxide, changing the pH and color of a phenol red indicator in the medium (from orange to purple). The plates were examined visually for color change and OD560 was measured after 4 h in order to determine presence/absence of growth. The MIC is defined as the lowest concentration of a compound that inhibits visible growth, compared with the growth in the controls (in this case defined as presence/absence of color change). All experiments were performed in duplicate and in 3–6 independent tests.
(§2) In order to determine possible additive or even synergistic effect of inhibitors, a method with calculation of the fractional inhibitory concentration index (FICI) was used (Pillai et al, [2005]). A combination of two inhibitors was applied (w/w 1:1) in the final concentration 1 mg/mL and subsequently diluted. The FICI index was calculated as FICI = (MICA/MICa) + (MICB/MICb), where MICA = concentration of inhibitor a in combination with inhibitor b; MICa = MIC of inhibitor a, applied as a single agent; MICB = concentration of inhibitor b in combination with inhibitor a; and MICb = MIC of inhibitor b applied as a single agent. The results were interpreted as a synergistic effect if the FICI was ≤ 0.5; as an additive effect if 0.5 < FICI ≤ 1; an indifferent effect if 1 < FICI ≤ 4; and as an antagonistic effect if the FICI was > 4 (Pillai et al. [2005]).

[5] = ref Giziewicz and Shugar [1977], Wierzchowski and Shugar [1982], Bzowska et al. [1992] (formycins), Gottlieb and Shaw [2013] (hadacidin), cited from earlier work; for pKa (first value): Hellgren et al. [1995] (metronidazole)
[6] = target: T1, purine nucleoside phosphorylase (PNP) from H. pylori 26695 strain (Helicobacter pylori, UniProt P56463); assay: biochemical
Experimental: (§4) Kinetic experiments with PNP, and also with AdSS, described in the section “AdSS and PNP inhibition detection of cellular uptake”, were performed on a double-beam UV/VIS spectrophotometer Cary 100, with thermostated Peltier cell holders (Varian: Agilent Technologies, Mulgrave, Vic., Australia). The inhibition constant was determined as the adjustable parameter in the global fitting of the competitive inhibition model to all data obtained, using the GraphPad Prism program (GraphPad Software, San Diego, CA, USA).

[7] = system: H. pylori ATCC 26695 strain; assay: MIC by broth microdilution and FICI of 1:1 combinations, strain 26695; type: cell-based; conditions: Helicobacter pylori, ATCC26695, 72 h, combinations 1:1 w/w given as inhibitor a/inhibitor b
Experimental: as §1, §2

[8] = target: adenylosuccinate synthetase (AdSS) from H. pylori 26695 strain; set-up: method as in Bubić et al. [2018]; conditions: H. pylori 26695 strain AdSS; ref Bubić et al. [2018]; cited from earlier work
[9] = target: T1, purine nucleoside phosphorylase (PNP) from H. pylori 26695 strain; conditions: m^7Guo as variable substrate, global fit, 25 °C, pH 7.0, 50 mM phosphate
Experimental: as §4

[10] = target: T1, purine nucleoside phosphorylase (PNP) from H. pylori 26695 strain; set-up: made in house; method as in Narczyk et al. [2018]; conditions: H. pylori 26695 strain PNP; ref Narczyk et al. [2018]; cited from earlier work
E. coli PNP = system: E. coli PNP; set-up: method as in Bzowska et al. [1992]; conditions: ref Bzowska et al. [1992]; cited from earlier work
P. falciparum PNP = system: P. falciparum PNP; set-up: method as in Dziekan et al. [2019]; conditions: solution studies; ref Dziekan et al. [2019]; cited from earlier work
[11] = starting concentration 350 µM, UV absorption at 294 nm
[12] = starting concentration 35 µM, LC–MS, 8 h incubation, Eq. (1)
[13] = starting concentration 350 µM, LC–MS, 8 h incubation, Eq. (1)
[14] = H. pylori SS1, geometrical mean of repetitions
[15] = H. pylori ATCC 26695, geometrical mean of repetitions

T1 sequence (P56463 whole entry): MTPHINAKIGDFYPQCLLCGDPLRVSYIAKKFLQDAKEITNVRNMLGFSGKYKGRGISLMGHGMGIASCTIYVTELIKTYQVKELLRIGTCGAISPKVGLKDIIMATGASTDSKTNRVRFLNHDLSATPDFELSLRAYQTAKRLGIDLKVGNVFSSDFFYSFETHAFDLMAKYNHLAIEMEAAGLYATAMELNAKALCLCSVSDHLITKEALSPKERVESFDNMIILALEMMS

Row | SMILES | Ionic form at pH 7 [1] | Intracellular accumulation [2, 11] | Intracellular accumulation [3, 12] | Intracellular accumulation [3, 13] | MIC (H. pylori SS1 strain; [14]) | MIC (H. pylori SS1 strain; H. pylori SS1) | pKa (first value) [5] | pKa [5] | MIC [7, 15] | MIC ([7]; H. pylori ATCC 26695) | further results
1 | O=c1[nH]cnc2c([C@@H]3O[C@H](CO)[C@@H](O)[C@H]3O)n[nH]c12 [Formycin B] | Neutral | 1.0 ± 7.4 µM | 2.5 ± 0.5 µM | 7.1 ± 2.5 µM | ≥ 397 µg/mL | ≥ 1.5 mM | 0.9 | 8.6 | > 1000 µg/mL | > 3.7 mM | Intracellular accumulation ([2]; starting concentration 350 µM, UV absorption at 279 nm): 3.0 ± 9.2 µM; Intracellular accumulation ([3]; starting concentration 350 µM, LC–MS, 8 h incubation, Eq. (1), listed as formycin B): up to 7.1 ± 2.5 µM; Intracellular accumulation ([4]; starting concentration 350 µM, PNP inhibition detection): 20.2 ± 34.0 µM; Ki [6]: 0.96 ± 0.08 µM
2 | O=CN(O)CC(=O)O [Hadacidin] | Anion |  |  |  | > 1000 µg/mL | > 8.4 mM | 3.5 | 9.4 | > 1000 µg/mL | > 8.4 mM | Ki [8]: 0.19 ± 0.02 µM; Intracellular accumulation ([4]; starting concentration 35 µM, AdSS inhibition detection): 4.9 ± 4.1 µM; Intracellular accumulation ([4]; starting concentration 35 µM, AdSS inhibition detection, listed as hadacidin): does not enter H. pylori cells
3 | Cc1ncc([N+](=O)[O-])n1CCO [Metronidazole] | Neutral |  |  |  |  |  |  |  |  |  | Intracellular accumulation ([3]; Helicobacter pylori, 8 h, 0.5 µM): 0.37 ± 0.01 µM
4 | C[n+]1cn([C@@H]2O[C@H](CO)[C@@H](O)[C@H]2O)c2nc(N)[nH]c(=O)c21 [m^7Guo, 7-Methylguanosine] |  |  |  |  |  |  |  |  |  |  | Km [9]: 0.0463 ± 0.0044 mM; Vmax [9]: 12.5 ± 0.5 µmol/min/mg
5 | Nc1ncnc2c([C@@H]3O[C@H](CO)[C@@H](O)[C@H]3O)n[nH]c12 [Formycin A] | Neutral | 35.2 ± 7.1 µM | 15.9 ± 0.5 µM | 29.5 ± 5.3 µM | > 1000 µg/mL | > 3.5 mM | 4.6 | 9.7 | ≥ 870 µg/mL | ≥ 3.1 mM | Intracellular accumulation ([2]; starting concentration 35 µM, UV absorption at 305 nm): 6.7 ± 0.6 µM; Intracellular accumulation ([2]; starting concentration 350 µM, UV absorption at 305 nm, Eq. (1), no correction for metabolites): 22.2 ± 7.6 µM; Ki [10]: 14 ± 1.7 µM; Intracellular accumulation ([3]; starting concentration 350 µM, LC–MS, 8 h incubation, Eq. (1), listed as formycin A): up to 29.5 ± 5.3 µM; Ki (E. coli PNP): 5.3 ± 0.4 µM
6 | C=C[C@H]1C[N@@]2CC[C@H]1C[C@H]2[C@H](O)c1ccnc2ccc(OC)cc12 [quinine] |  |  |  |  |  |  |  |  |  |  | Binding affinity to P. falciparum PNP (P. falciparum PNP): low nanomolar affinity
